Assay results taken from patent publication US7704943B2, “Transglutaminase for inhibiting angiogenesis” (Aston University, priority 2000, dated 2010).

Tests used:
[1] = tested on: ECV304 cells; assay: in vitro angiogenesis/tubulogenesis model, ECV304 cells co-cultured with C378 fibroblasts; type: cell-based, human
Description: An in vitro system of angiogenesis/tubulogenesis was developed to evaluate the efficacy of TGase administration on angiogenesis. […] In the model cell system described below, ECV304 cells were co-cultured with the primary human dermal fibroblast cell line C378 (isolated from human foreskin), which provides the appropriate biochemical information to stimulate the differentiation of ECV304 to form capillary-like structures.
ECV304 cell lines S3 (a neomycin resistant transfected control cell line phenotypically similar to wild type cells) and B4 (a tTGase antisense transfected cell line [Jones, R. A., et al., 1997, J. Cell Sci. 110, 2461-2472]) and C378 were routinely cultured in Dulbecco's Modified Eagles Media (DMEM) supplemented with 2 mM glutamine and 10% (v/v) foetal calf serum (FCS). Cells were harvested by exposure to 0.25% (w/v) bovine trypsin in phosphate buffered saline (PBS) pH 7.4, and collected cells were washed in normal culture media, counted and seeded into the appropriate tissue culture vessel. Standard angiogenesis experiments were performed in 12-well cell culture plates, and 2×10^4 ECV304 cells and 2×10^4 C378 cells were seeded into 1 ml of normal growth media. For immunochemical staining experiment, 2×10^3 cells of each cell type were seeded into […] of growth medium in 8-well glass chamber slides. Co-cultures were incubated at 37° C. in a humidified atmosphere containing 5% (V/V) CO2, and tubules were allowed to develop spontaneously over a 14-day period, with regular changes of growth media every 72 hours.
For cultures treated with purified tTGase, a dose response with 1, 10 and 50 μg […] liver transglutaminase (gplTGase) was performed with two separate dosing regimes. gplTGase was activated by pre-incubation with 10 mM DTT on ice for one hour prior to its addition to cultures. The highest amount of DTT present in the cultures was 0.5 mm for the 50 μg gplTGase treatment, and control cultures were treated with DTT accordingly. In some experiments, cultures were treated with two administrations of exogenous enzyme on day 1 and day 4 of the experiment. Further studies extended the dose regime to include five gplTGase treatments, on days 1, 4, 7, 10 and 13.
Non-specific protein binding was blocked by incubating fixed cells with 300 μl of 3% (w/v) bovine serum albumin (BSA) overnight at 4° C. Blocked plates were then incubated with the primary antisera (see table 5), diluted in the above buffer, for 2 hours at 37° C. with gentle shaking. Next, plates were washed three times and incubated with the appropriate species-specific secondary antibody (see table 5) conjugated to Horseradish peroxidase (HRP) for 2 hours at 37° C. with gentle shaking. […]

[2] = tested on: rat dermal wound; settings: addition of exogenous enzyme, rat dermal wound healing; cited from earlier work

Cc1ccc(C(=O)Nc2ccc(S(=O)(=O)O)c3cc(S(=O)(=O)O)cc(S(=O)(=O)O)c23)cc1NC(=O)c1cccc(NC(=O)Nc2cccc(C(=O)Nc3cc(C(=O)Nc4ccc(S(=O)(=O)O)c5cc(S(=O)(=O)O)cc(S(=O)(=O)O)c45)ccc3C)c2)c1 [suramin]
microtubule formation (collagen type I, UEA-1 and tTGase staining) ([1]; 10 μM, compared to untreated cells): significantly reduced | microtubule formation ([1]; 100 μM): completely eradicated | microtubule formation ([1]; 200 μM): completely eradicated | angiogenesis (FIG. 4, tubules stained for collagen type I, UEA-1, tTGase) ([1]; standard angiogenesis inhibitor, positive control): inhibition of angiogenesis

B1: recombinant tTGase: exogenous recombinant tissue transglutaminase used in the study of Haroon et al 1999 (protein, UniProt P21980 2-687, looked up)
Protein-glutamine …: AEELVLERCDLELETNGRDHHTADLCREKLVVRRGQPFWLTLHFEGRNYEASVDSLTFSVVTGPAPSQEAGTKARFPLRDAVEEGDWTATVVDQQDCTLSLQLTTPANAPIGLYRLSLEASTGYQGSSFVLGHFILLFNAWCPADAVYLDSEEERQEYVLTQQGFIYQGSAKFIKNIPWNFGQFEDGILDICLILLDVNPKFLKNAGRDCSRRSSPVYVGRVVSGMVNCNDDQGVLLGRWDNNYGDGVSPMSWIGSVDILRRWKNHGCQRVKYGQCWVFAAVACTVLRCLGIPTRVVTNYNSAHDQNSNLLIEYFRNEFGEIQGDKSEMIWNFHCWVESWMTRPDLQPGYEGWQALDPTPQEKSEGTYCCGPVPVRAIKEGDLSTKYDAPFVFAEVNADVVDWIQQDDGSVHKSINRSLIVGLKISTKSVGRDEREDITHTYKYPEGSSEEREAFTRANHLNKLAEKEETGMAMRIRVGQSMNMGSDFDVFAHITNNTAEEYVCRLLLCARTVSYNGILGPECGTKYLLNLNLEPFSEKSVPLCILYEKYRDCLTESNLIKVRALLVEPVINSYLLAERDLYLENPEIKIRILGEPKQKRKLVAEVSLQNPLPVALEGCTFTVEGAGLTEEQKTVEIPDPVEAGEEVKVRMDLLPLHMGLHKLVVNFESDKLKAVKGFRNVIIGPA
vessel length density [2]: increase in vessel length density
